Results: publication PMC8880997, “Structure and ion-release mechanism of PIB-4-type ATPases” (eLife, 2021)

How the values were obtained:
[1] = target: T1, SsZntA (Shigella sonnei, UniProt Q3YW59); assay: Baginski ATPase assay (Pi release) in lipid-detergent; format: biochemical; settings: 5 mM ATP, Zn2+ or Cd2+, 5 mM MgCl2, Tris-HCl pH 7.5, 37 °C; KCl titration
T1 construct: gene zntA; purified as in Wang et al., 2014
T1 sequence (Q3YW59 1-732): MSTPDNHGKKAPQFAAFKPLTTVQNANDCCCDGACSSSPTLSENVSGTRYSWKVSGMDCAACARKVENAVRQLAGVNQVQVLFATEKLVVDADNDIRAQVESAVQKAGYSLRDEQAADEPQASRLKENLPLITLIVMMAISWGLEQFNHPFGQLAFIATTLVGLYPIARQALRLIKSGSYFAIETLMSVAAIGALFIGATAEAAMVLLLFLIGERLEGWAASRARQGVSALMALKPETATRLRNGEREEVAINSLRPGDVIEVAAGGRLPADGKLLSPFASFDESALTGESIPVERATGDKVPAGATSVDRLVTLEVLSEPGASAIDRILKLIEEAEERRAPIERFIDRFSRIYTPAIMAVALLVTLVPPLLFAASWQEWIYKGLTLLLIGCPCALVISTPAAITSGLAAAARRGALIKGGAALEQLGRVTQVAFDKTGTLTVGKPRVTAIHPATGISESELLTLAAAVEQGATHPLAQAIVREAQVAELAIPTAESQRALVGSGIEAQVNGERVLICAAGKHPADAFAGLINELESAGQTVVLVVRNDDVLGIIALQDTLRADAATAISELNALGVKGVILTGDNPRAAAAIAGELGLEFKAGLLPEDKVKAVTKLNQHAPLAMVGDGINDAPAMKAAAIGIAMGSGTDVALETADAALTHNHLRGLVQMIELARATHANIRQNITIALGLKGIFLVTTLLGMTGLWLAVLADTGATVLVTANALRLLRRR

[2] = target: T2, sCoaT (Sulfitobacter sp. NAS-14.1, UniProt A0ABF7PH95); design: gene NAS141_02821; settings: phosphate analogue at the phosphorylation site; formed from BeSO4 and NaF with EGTA, metal-free; late E2P state
T2 sequence (A0ABF7PH95 1-682): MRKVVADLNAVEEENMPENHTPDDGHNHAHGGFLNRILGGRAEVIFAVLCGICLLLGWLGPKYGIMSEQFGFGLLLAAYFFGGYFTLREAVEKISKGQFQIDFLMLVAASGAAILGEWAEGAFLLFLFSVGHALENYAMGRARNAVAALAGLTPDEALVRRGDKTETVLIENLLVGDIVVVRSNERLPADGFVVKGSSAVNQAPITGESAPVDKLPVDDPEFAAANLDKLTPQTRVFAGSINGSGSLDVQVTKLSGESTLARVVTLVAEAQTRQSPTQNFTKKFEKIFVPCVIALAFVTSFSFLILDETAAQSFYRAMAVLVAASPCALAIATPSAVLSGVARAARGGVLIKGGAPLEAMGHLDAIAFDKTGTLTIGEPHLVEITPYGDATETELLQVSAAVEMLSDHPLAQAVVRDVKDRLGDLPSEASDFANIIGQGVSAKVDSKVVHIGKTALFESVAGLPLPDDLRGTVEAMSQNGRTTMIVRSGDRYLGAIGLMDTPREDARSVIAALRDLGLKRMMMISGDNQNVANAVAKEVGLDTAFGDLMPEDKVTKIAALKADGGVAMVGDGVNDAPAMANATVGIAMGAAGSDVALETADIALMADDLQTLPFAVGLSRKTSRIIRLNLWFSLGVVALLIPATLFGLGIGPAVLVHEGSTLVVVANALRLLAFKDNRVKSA

[3] = target: T2, sCoaT; assay: X-ray crystallography, […]-3.[…] Å; format: binding; design: gene NAS141_02821; residues before about 40-47 not modelled; settings: phosphate analogue at the phosphorylation site; formed from AlCl3 and NaF with EGTA, metal-free; E2.Pi state

Nc1ncnc2c1ncn2[C@@H]1O[C@H](COP(=O)(O)OP(=O)(O)OP(=O)(O)O)[C@@H](O)[C@H]1O [ATP]
Baginski ATPase assay (Pi release) in lipid-detergent [1]: Functional ATPase assay in lipid–detergent solution of sCoaT (wild-type and D601K forms) as well as SsZntA

[F][Be-]([F])[F] [BeF3^−]
X-ray crystallography, 3.1 Å [2]: structures of sCoaT in metal-free conditions supplemented with two different phosphate analogues, BeF3^− and AlF4^−

[F][Al-]([F])([F])[F] [AlF4^−]
X-ray crystallography, 3.2-3.3 Å [3]: structures of sCoaT in metal-free conditions supplemented with two different phosphate analogues, BeF3^− and AlF4^−
